{"source": "patent US12540150B1", "about": "“Fluorogenic probe using a Mislow-Evans rearrangement for real-time imaging of hydrogen peroxide” (University of Pittsburgh—Of the Commonwealth System of …, priority 2020, dated 2026)", "key": {"[1]": {"test": "Fluorescence intensity of selenide 1 and phenol 5", "format": "physicochemical", "conditions": "pH 7", "method": "All fluorescence measurements (excitation 490 nm, emission 510-570 nm) were carried out using a Promega Biosystems Modulus II Microplate Reader or a HoribaMax Fluorometer unless otherwise stated. Data analysis was performed using GraphPad Prism 8.\nThe fluorescence intensity of selenide 1 and phenol 5 were investigated. Solutions containing ultrapure water (681 μL), […] phosphate pH 7 buffer (31 μL), DMSO (28.1 μL), and 80 μM 1 or phenol 5 in DMSO (9.4 μL) were made. Aliquots of these solutions (200 μL) were transferred to the wells of a black 96-well plate and the fluorescence was measured. As evident from FIG. 10 and Table 1, the difference in fluorescence intensity of probe 1 and phenol 5, is 27-fold. Generally, O-alkylation of Pittsburgh Green suppresses the fluorescence by 200-400 fold. The somewhat modest fluorescence increase in the current system is attributed to the trace contamination of the fluorescent compound 5 during the purification of the nonfluorescent probe 1."}, "[2]": {"conditions": "100 nM in water", "method": "The pH dependence of phenol 5 was also investigated. Phenol 5 was dissolved in water to a concentration of 100 nM. This solution (100 mL) was titrated with HCl and NaOH. The pH was measured after each addition before measuring the fluorescence using a Horiba FluoroMax3 fluorescence spectrometer. Fluorescence was measured using 1 nm slit widths with an excitation wavelength of 496 nm and an emission wavelength of 510 nm, the results of which are shown in FIG. 23 and Table 15."}, "RAW cells": {"test_system": "RAW cells", "test": "Imaging of endogenous H2O2 upon ionomycin stimulation in RAW cells", "format": "cell-based", "conditions": "5 μM probe", "description": "After detecting exogenously added H2O2 in cells, the focus shifted to more biologically relevant, endogenous H2O2. It was attempted to monitor endogenous H2O2 production upon stimulation with ionomycin in RAW cells. […] In contrast, with probe 1, a significant response was observed within 30 s after the addition of ionomycin relative to the baseline fluorescence (FIG. 24B-C) and peaked at 48 s."}}, "note": "Several values for one entry are separate records, joined by “and”; a condition that tells them apart may be missing. Identical values can stand only once. Like-named read-outs stand apart in the source and are kept apart here."}
{"smiles": "O=c1ccc2c(-c3ccccc3CO)c3ccc(O)cc3oc-2c1", "note": "[Compound 5]", "values": [{"measurement": "Fluorescence Intensity", "setting": "[1]", "value": "244,687 and 247,204 and 246,848"}, {"measurement": "Fluorescence Intensity", "setting": "[2]; pH 3.99", "value": 920}, {"measurement": "Fluorescence Intensity", "setting": "[2]; pH 4.20", "value": 930}, {"measurement": "Fluorescence Intensity", "setting": "[2]; pH 4.33", "value": "1,070"}, {"measurement": "Fluorescence Intensity", "setting": "[2]; pH 4.48", "value": "1,450"}, {"measurement": "Fluorescence Intensity", "setting": "[2]; pH 4.65", "value": "1,440"}, {"measurement": "Fluorescence Intensity", "setting": "[2]; pH 4.77", "value": "1,670"}, {"measurement": "Fluorescence Intensity", "setting": "[2]; pH 5.07", "value": "2,790"}, {"measurement": "Fluorescence Intensity", "setting": "[2]; pH 5.51", "value": "5,280"}, {"measurement": "Fluorescence Intensity", "setting": "[2]; pH 5.69", "value": "7,130"}, {"measurement": "Fluorescence Intensity", "setting": "[2]; pH 5.90", "value": "10,250"}, {"measurement": "Fluorescence Intensity", "setting": "[2]; pH 6.30", "value": "18,790"}, {"measurement": "Fluorescence Intensity", "setting": "[2]; pH 6.38", "value": "18,720"}, {"measurement": "Fluorescence Intensity", "setting": "[2]; pH 6.48", "value": "22,820"}, {"measurement": "Fluorescence Intensity", "setting": "[2]; pH 6.80", "value": "27,620"}, {"measurement": "Fluorescence Intensity", "setting": "[2]; pH 6.90", "value": "31,730"}, {"measurement": "Fluorescence Intensity", "setting": "[2]; pH 7.11", "value": "34,510"}, {"measurement": "Fluorescence Intensity", "setting": "[2]; pH 7.18", "value": "35,740"}, {"measurement": "Fluorescence Intensity", "setting": "[2]; pH 7.69", "value": "39,880"}, {"measurement": "Fluorescence Intensity", "setting": "[2]; pH 8.31", "value": "41,950"}, {"measurement": "Fluorescence Intensity", "setting": "[2]; pH 8.63", "value": "42,930"}, {"measurement": "Fluorescence Intensity", "setting": "[2]; pH 8.88", "value": "44,240"}, {"measurement": "Fluorescence Intensity", "setting": "[2]; pH 9.00", "value": "43,280"}, {"measurement": "Fluorescence Intensity", "setting": "[2]; pH 9.09", "value": "43,110"}, {"measurement": "Fluorescence Intensity", "setting": "[2]; pH 9.15", "value": "43,140"}, {"measurement": "Fluorescence Intensity", "setting": "[2]; pH 9.32", "value": "43,550"}, {"measurement": "Fluorescence Intensity", "setting": "[2]; pH 9.40", "value": "43,850"}, {"measurement": "Fluorescence Intensity", "setting": "[2]; pH 9.49", "value": "43,340"}, {"measurement": "Fluorescence Intensity", "setting": "[2]; pH 9.56", "value": "45,080"}, {"measurement": "Fluorescence Intensity", "setting": "[2]; pH 9.61", "value": "44,640"}, {"measurement": "Fluorescence Intensity", "setting": "[2]; pH 9.71", "value": "43,930"}, {"measurement": "Fluorescence Intensity", "setting": "[2]; pH 9.75", "value": "42,610"}, {"measurement": "Fluorescence Intensity", "setting": "[2]; pH 9.83", "value": "44,070"}, {"measurement": "Fluorescence Intensity", "setting": "[2]; pH 9.92", "value": "43,670"}, {"measurement": "Fluorescence Intensity", "setting": "[2]; pH 10.01", "value": "41,900"}, {"measurement": "Fluorescence Intensity", "setting": "[2]; pH 10.10", "value": "42,170"}, {"measurement": "Fluorescence Intensity", "setting": "[2]; pH 10.22", "value": "42,800"}, {"measurement": "Fluorescence Intensity", "setting": "[2]; pH 10.33", "value": "42,170"}, {"measurement": "Fluorescence Intensity", "setting": "[2]; pH 10.43", "value": "42,570"}, {"measurement": "Fluorescence Intensity", "setting": "[2]; pH 10.48", "value": "42,410"}, {"measurement": "Fluorescence Intensity", "setting": "[2]; pH 10.59", "value": "40,450"}, {"measurement": "Fluorescence Intensity", "setting": "[2]; pH 10.68", "value": "41,370"}, {"measurement": "Fluorescence Intensity", "setting": "[2]; pH 10.75", "value": "40,520"}, {"measurement": "Fluorescence Intensity", "setting": "[2]; pH 10.85", "value": "40,140"}, {"measurement": "Fluorescence Intensity", "setting": "[2]; pH 10.91", "value": "38,790"}]}
{"smiles": "CC(=O)Oc1cc2c(cc1Cl)C(c1ccccc1C(=O)O)c1cc(Cl)c(OC(C)=O)cc1O2", "note": "[dihydrodichlorofluorescein acetate, reference compound]", "values": [{"measurement": "fluorescence response upon ionomycin addition", "setting": "RAW cells", "value": "fluorescence increase could hardly be observed"}]}
